# Measured values reported in patent publication US12336971B2, “Ophthalmic pharmaceutical compositions and uses thereof” (ALCON INC., priority 2021, dated 2025).
# Read-outs that look alike come from different tables or passages of the source.
# What was measured:
# [1] = Equilibrium solubility of WS-12 in compositions / evaluation of solubilizers (HPLC); format: physicochemical
# Description: As explained above, WS-12 is insoluble in water. Regardless, it was necessary to identify excipients that would provide WS-12 with a solubility of about 200 μM (0.0058%) in an aqueous medium compatible with administration (e.g., topical administration) to a human (e.g., a human eye). Several solubilizers were evaluated, including PEG 400 (polyethylene glycol 400), KOLLIDON 30 (polyvinylpyrrolidone), propylene glycol, TWEEN 80 (polyoxyethylene (20) sorbitan monooleate), KOLLIPHOR® EL or KOLLIPHOR® ELP (polyoxyl 35 castor oil) and tyloxapol (ethylene oxide-formaldehyde-p-octylphenol copolymer).
# [2] = Loss of WS-12 concentration on storage in polyolefin containers; format: physicochemical
# Description: It was discovered that there is an inverse relationship between the crystallinity of the polyolefin and the amount of WS-12 absorbed into the polyolefin when the pharmaceutical composition is stored in contact with the polyolefin at elevated temperatures (e.g. 40° C.). Crystallinity was measured by determining the melting temperature of the polyolefin by DSC, with higher melting temperatures denoting greater crystallinity.
# LDPE 1, LDPE 2, LDPE 3, LDPE 4, and LDPE 5 in Table 12 correspond to LDPEs from different suppliers. Melting point values of the polyolefins were experimentally determined by differential scanning calorimetry (DSC). The densities of the polyolefins were as provided by the manufacturer's product data sheet.
# [3] = WS-12 content in blow-fill-seal LDPE containers after curing at 40° C. and storage at 25° C.; format: physicochemical; settings: Formulation 1 in LDPE BFS units; cured 10 days at 40° C., then stored at 25° C. over 140 days; FIG. 8
# Description: The ‘curing’ technique, or process, described herein exploits the temperature dependence of WS-12 absorption into LDPE to yield a product that is stable when stored at 25° C. In some embodiments, the curing technique includes the following steps: (a) producing the BFS containers filled with an ophthalmic pharmaceutical composition provided herein; (b) storing the filled BFS containers at a first temperature (e.g. 40° C.) to drive WS-12 into the LDPE container with the aim of saturating the container walls with WS-12; and (c) subsequently storing the BFS containers at a second temperature (e.g., 25° C.) whereupon further loss of WS-12 to the container walls is stemmed due to the above described saturation process.
# (99A long-term 25° C. trace). The first data point of each line represents the content of WS-12 in the BFS article after the curing period (e.g., the first temperature of storage). The amount of WS-12 lost to the LDPE increased as the duration of curing at 40° C. was increased from 1 day to 10 days. […] After a curing period of 10 days at 40° C. (black circles), the content of WS-12 in the BFS units stored at 25° C. was constant over a period of 140 days.
# [4] = Chemical stability of WS-12 to typical drug stressors; format: physicochemical; settings: typical drug stressors (acid, base, peroxide, heat, light)
# [5] = JECFA, cited from earlier work
structure (smiles),measurement,setting,value
"COc1ccc(NC(=O)[C@@H]2C[C@H](C)CC[C@H]2C(C)C)cc1 [WS-12, (1R,2S,5R)-2-isopropyl-N-(4-methoxyphenyl)-5-methylcyclohexane-1-carboxamide]",WS-12 level dissolved,[1]; KOLLIPHOR EL 3% w/v,≥ 200 µM
same,Effect on WS-12 solubility,"[1]; TWEEN 80, required concentration greater than 4%",significantly increased
same,solubility,"[1]; aqueous medium with solubilizer, aqueous with cosolvent or surfactant or cyclodextrin, thermodynamic from solid, KOLLIDON 30 (polyvinylpyrrolidone), read-out: WS-12 level solubilized",< 200 µM
same,solubility,"[1]; aqueous ophthalmic composition, 2 °C, aqueous with cosolvent or surfactant or cyclodextrin, thermodynamic from solid, in 3% KOLLIPHOR EL, 0.14% hypromellose, 0.78% Na dihydrogen phosphate dihydrate, 0.55% NaCl, pH 7, 2°-8° C., read-out: WS-12 Solubility (mg/mL) 2°-8° C.",0.041 mg/mL
same,solubility,"[1]; aqueous ophthalmic composition, aqueous with cosolvent or surfactant or cyclodextrin, thermodynamic from solid, in 3% KOLLIPHOR EL, 0.14% hypromellose, 0.78% Na dihydrogen phosphate dihydrate, 0.55% NaCl, pH 7, about 17° C., read-out: WS-12 Solubility (mg/mL) Room Temp (about 17° C.)",0.055 mg/mL
same,solubility,"[1]; propylene glycol, read-out: WS-12 level solubilized",< 200 µM
same,solubility,"[1]; tyloxapol, read-out: WS-12 level solubilized",< 200 µM
same,Percent Loss in WS-12 Concentration After Storage in Polyolefin Container for 2 Weeks at 40° C.,[2]; High Density Polyethylene (HDPE),1.3%
same,Percent Loss in WS-12 Concentration After Storage in Polyolefin Container for 2 Weeks at 40° C.,[2]; Low Density Polyethylene (LDPE 1),2.8%
same,Percent Loss in WS-12 Concentration After Storage in Polyolefin Container for 2 Weeks at 40° C.,[2]; Low Density Polyethylene (LDPE 2),2.8%
same,Percent Loss in WS-12 Concentration After Storage in Polyolefin Container for 2 Weeks at 40° C.,[2]; Low Density Polyethylene (LDPE 3),3.3%
same,Percent Loss in WS-12 Concentration After Storage in Polyolefin Container for 2 Weeks at 40° C.,[2]; Low Density Polyethylene (LDPE 4),4.0%
same,Percent Loss in WS-12 Concentration After Storage in Polyolefin Container for 2 Weeks at 40° C.,[2]; Low Density Polyethylene (LDPE 5),4.5%
same,Percent Loss in WS-12 Concentration After Storage in Polyolefin Container for 2 Weeks at 40° C.,[2]; Polypropylene (PP),1.3%
same,Content of WS-12 in the BFS units,[3],constant
same,Chemical stability,[4],chemically stable
same,Solubility in avocado oil,[5]; avocado oil,sparingly soluble
same,Solubility in ethanol,[5]; ethanol,sparingly soluble
same,Solubility in water,[5]; water,insoluble
